Molecules are shown by their SMILES.

Consider 7 compounds from patent US20100216255A1, “METHODS OF DETERMINING ACTIVE LEVELS OF DRUGS IN FLUID SAMPLES” (CLINICAL REFERENCE LABORATORY, priority 2001, published 2010).

The target of the first test is T1, Beta-1-adrenergic receptor (Homo sapiens, UniProt P08588).
T1 construct: purchased Sigma Chemical RBIB-143
T1 sequence (P08588 whole entry, species assumed): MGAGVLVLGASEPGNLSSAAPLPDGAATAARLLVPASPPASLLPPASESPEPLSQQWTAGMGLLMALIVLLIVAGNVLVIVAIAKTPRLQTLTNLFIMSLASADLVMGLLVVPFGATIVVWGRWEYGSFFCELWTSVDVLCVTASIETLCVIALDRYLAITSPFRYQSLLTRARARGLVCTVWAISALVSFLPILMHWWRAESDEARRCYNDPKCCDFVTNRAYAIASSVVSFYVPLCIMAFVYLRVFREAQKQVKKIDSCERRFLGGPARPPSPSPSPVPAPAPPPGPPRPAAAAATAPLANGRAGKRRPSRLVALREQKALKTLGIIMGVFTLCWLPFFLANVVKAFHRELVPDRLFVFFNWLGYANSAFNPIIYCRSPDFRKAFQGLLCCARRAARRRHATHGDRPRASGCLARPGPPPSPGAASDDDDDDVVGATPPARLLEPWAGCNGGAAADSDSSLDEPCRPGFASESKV
As to the kind of experiment: Cell receptor assay, competition with radiolabeled 125-iodocyanopindolol. The format is binding. The conditions noted are these: cut-off control, 20 ug/ml Atenolol in drug negative urine, diluted 1 to 10 before assay; 2 h at room temperature; counts inversely related to unlabeled ligand.
Method: This example provides a cell receptor assay for B1 adrenergic receptors and tests the accuracy of the assay. Patient urine that may or may not contain target ligand and a radiolabeled competitive ligand are added to a test tube containing a limited concentration of cell membrane containing beta-1-adrenergic receptors. The unlabeled ligand in the patient's urine competes with the labeled ligand for the receptor sites during an incubation period. Following incubation the tubes are centrifuged to precipitate the cell membrane-receptors. The solution containing unbound ligand is decanted and the radioactivity retained in the tubes is detected in a gamma counter. The amount of radioactivity bound is indirectly proportional to the concentration of unlabeled ligand present in the patient's urine. […] Adjust the pH to 7.4 with concentrated hydrochloric acid and fill to volume with deionized water. […] Thaw the stock solution of membrane and dilute to 30 milliliter with Tris working buffer. […] The working solution of radiolabel is prepared by diluting the stock 1 to 30 with Tris working buffer. […] Atenolol, propranolol and metoprolol were diluted with HPLC grade ethyl alcohol (Aldrich Chemical Company Milwaukee, Wis.) to produce a 1.0 mg/ml stock solution for each drug. […] The total radioactivity was detected on Packard Cobra II Auto Gamma counter (Packard Instrument Company Downers Grove, Ill.).
On to `CC(C)NCC(O)COc1ccc(CC(N)=O)cc1` (stereo not shown) [Atenolol], for which the “Counts per Minute” value came out at 5117.

The target of the next test is Angiotensin Converting Enzyme (ACE) (Homo sapiens, UniProt P12821). As to the kind of experiment: ACE enzyme inhibition assay on samples from individuals reporting an ACE-inhibiting drug. The conditions noted are these: urine samples from individuals self-reporting the drug; count out of the LISTED number.
Chain of Angiotensin Converting Enzyme (ACE) (P12821 30-1232 limits assumed): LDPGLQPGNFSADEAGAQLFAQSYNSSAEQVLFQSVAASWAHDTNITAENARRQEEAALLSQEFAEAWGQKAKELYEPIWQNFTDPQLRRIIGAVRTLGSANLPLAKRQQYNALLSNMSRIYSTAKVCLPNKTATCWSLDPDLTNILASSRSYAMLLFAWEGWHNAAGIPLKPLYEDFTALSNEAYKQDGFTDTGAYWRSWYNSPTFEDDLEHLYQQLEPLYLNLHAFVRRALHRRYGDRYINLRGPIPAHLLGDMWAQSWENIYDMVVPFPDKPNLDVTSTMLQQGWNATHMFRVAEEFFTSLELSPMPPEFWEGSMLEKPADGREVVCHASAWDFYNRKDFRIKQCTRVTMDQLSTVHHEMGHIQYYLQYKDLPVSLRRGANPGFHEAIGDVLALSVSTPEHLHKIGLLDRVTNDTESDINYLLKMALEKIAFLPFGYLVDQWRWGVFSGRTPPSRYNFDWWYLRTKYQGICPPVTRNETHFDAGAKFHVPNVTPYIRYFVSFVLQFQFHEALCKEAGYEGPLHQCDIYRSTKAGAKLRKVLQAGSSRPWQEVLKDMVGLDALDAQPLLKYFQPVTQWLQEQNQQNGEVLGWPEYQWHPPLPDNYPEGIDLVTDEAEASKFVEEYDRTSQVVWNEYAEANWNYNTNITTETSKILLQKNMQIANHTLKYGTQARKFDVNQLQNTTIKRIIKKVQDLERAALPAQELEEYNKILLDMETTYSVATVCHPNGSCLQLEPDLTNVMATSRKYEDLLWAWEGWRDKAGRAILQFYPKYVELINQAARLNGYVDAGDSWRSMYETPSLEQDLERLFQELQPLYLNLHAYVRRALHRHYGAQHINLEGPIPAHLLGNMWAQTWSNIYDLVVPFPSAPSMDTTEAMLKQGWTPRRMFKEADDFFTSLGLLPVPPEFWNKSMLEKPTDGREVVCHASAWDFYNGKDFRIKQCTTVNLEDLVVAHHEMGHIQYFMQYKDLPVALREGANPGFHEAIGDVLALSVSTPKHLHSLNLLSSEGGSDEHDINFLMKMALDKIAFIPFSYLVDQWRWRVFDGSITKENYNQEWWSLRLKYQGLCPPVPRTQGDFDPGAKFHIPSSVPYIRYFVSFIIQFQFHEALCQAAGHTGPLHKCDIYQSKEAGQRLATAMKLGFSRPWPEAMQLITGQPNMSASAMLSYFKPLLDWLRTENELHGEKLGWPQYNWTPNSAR
Method: The bottle was then inverted a few times and then put on a shaker (Clay Adams CA6000 Centrifuge Becton Dickinson Microbiology System Sparks, Md.) at speed setting 2 for ten minutes. […] The pH was adjusted to 8.2 with 6 N hydrochloric acid.
Using the above-described reagents, a Hamilton MicroLab AT pipetting station was used to transfer 100 μl of the ACE serum in Tris buffer to each well of a microtiter plate. Next, 25 μl of the cut-off level calibrator, controls and unknown were added to their corresponding well locations with the Hamilton MicroLab AT, as shown in Table 1.
Five different patient samples were then added to five other wells. The microtiter plate was shaker on Titer Plate Shaker (Lab Line Instruments, Inc. Melrose, Ill.) at a setting of 2 for at least five minutes before pipetting 100 μl of the substrate FAPGG into each well. Next, solution was mixed by shaking the microtiter plate on the shaker at a speed setting of 2 for one minute. The microtiter plate was placed in the Spectra Mac Plus (Molecular Devices, Sunnyvale, Calif.) plate reader and the optical density of each sample at 340 nanoMeter was determined. The microtiter plate was then incubated at 37° C. for two hours. The optical density was again determined on the plate reader. This two-hour reading of optical density was then subtracted from the initial reading of optical density and termed the “delta OD 340.”
Fluid samples were obtained from individuals reporting that they were currently taking an ACE-inhibiting drug. […] The medications reported by the patients included eight different medications of the ACE-inhibiting drug family. Each individual reported taking only one specific ACE-inhibiting drug. Thus, this example tests the ability of the assay to identify individuals on ACE-inhibiting drugs without prior knowledge of the specific drug being taken.
As for `CCOC(=O)[C@H](CCc1ccccc1)N[C@H]1CCc2ccccc2N(CC(=O)O)C1=O` [BENAZEPRIL, benazepril], the “DETECTED (samples testing positive for ACE-inhibiting drugs)” value came to 14.

Turning to `CCOC(=O)[C@H](CCc1ccccc1)N[C@@H](C)C(=O)N1CCC[C@H]1C(=O)O` [ENALAPRIL, enalapril], the “DETECTED (samples testing positive for ACE-inhibiting drugs)” value worked out at 5.

`NCCCC[C@H](N[C@@H](CCc1ccccc1)C(=O)O)C(=O)N1CCC[C@H]1C(=O)O` [LISINOPRIL, lisinopril]: the “DETECTED (samples testing positive for ACE-inhibiting drugs)” value was found to be 22.

As for `CCOC(=O)[C@H](CCc1ccccc1)N[C@@H](C)C(=O)N1Cc2cc(OC)c(OC)cc2C[C@H]1C(=O)O` [MOEXIPRIL, moexipril], the “DETECTED (samples testing positive for ACE-inhibiting drugs)” value came to 3. For `CCOC(=O)[C@H](CCc1ccccc1)N[C@@H](C)C(=O)N1Cc2ccccc2C[C@H]1C(=O)O` [QUINAPRIL, quinapril], the “DETECTED (samples testing positive for ACE-inhibiting drugs)” value is given as 15. Still for that read-out and setting: for `CCOC(=O)[C@H](CCc1ccccc1)N[C@@H](C)C(=O)N1[C@H](C(=O)O)C[C@@H]2CCC[C@@H]21` [RAMIPRIL, ramipril] the value was 2.
